Legend:
[1] = system: livers from HiAD-fed mice; assay: Rheometry of livers (dynamic time sweep and stress relaxation test); format: in vivo; settings: 600 s; for storage modulus (stiffness, G'): 2% constant strain, 1 radian/s, FIG. 3B; for faster relaxation times (high viscoelasticity) of HiAD livers, stress relaxation test: initial 10% strain, FIGS. 3C-3D
Procedure: FIGS. 3A-3D. […] The plate was lowered to touch the sample and 100˜300 Pa of initial force was applied. Dynamic time sweep test (2% constant strain, oscillation frequency 1 radian/s, measurements taken for 600 s) was done first to collect the shear storage modulus (stiffness, G′) and loss modulus (G″) (FIG. 3A). […] Stress relaxation test was performed for 600 s with an initial 10% strain. […] Stress was normalized by the initial stress (FIG. 3C). Quantification of timescale at which the stress is relaxed to half its original value (τ1/2), from the tests in FIG. 3C (FIG. 3D). (N=2-4, Data are represented as mean±SEM; one way ANOVA followed by post-hoc Tukey test *p<0.05, **p<0.01, ***p<0.001).
The plate was lowered to touch the sample and 100˜300 Pa of initial force was applied. Dynamic time sweep test (2% constant strain, oscillation frequency 1 radian/s, measurements taken for 600 s) was done first to collect the shear storage modulus (stiffness, G′) and loss modulus (G″) (FIG. 3A). […] A stress relaxation test was performed for 600 s with an initial 10% strain. […] Stress was normalized by the initial stress (FIG. 3C). Quantification of timescale at which the stress is relaxed to half its original value (τ1/2), from the tests in FIG. 3C (FIG. 3D). (N=2-4, Data are represented as mean±SEM; one way ANOVA followed by post-hoc Tukey test *p<0.05, **p<0.01, ***p<0.001).

[2] = system: livers from HiAD-fed mice; assay: Atomic force microscopy (AFM) indentation of livers, hysteresis between approach and retraction curves; format: in vivo; settings: 60 mg/kg daily, i.p., FIG. 1B
Text: FIGS. 1A-1B. ECM viscoelasticity increases in an advanced glycation end product (AGE) and hepatocyte RAGE-dependent manner. Schematic presentation of the methods used to assess mechanical responses to indentation by an atomic force microscope (AFM) probe. Force-distance curve is generated when the probe indents the sample until a defined force is reached (blue, approach curve) and the cantilever is retracted (red, retraction curve). The hysteresis between the approach and retraction curves indicates sample viscosity (FIG. 1A).
As shown in FIGS. 1A-1B, extracellular matrix (ECM) viscoelasticity increases in an AGE and hepatocyte RAGE-dependent manner. Mechanical responses to indentation were assessed by an atomic force microscope (AFM) probe. A force-distance curve is generated when the probe indents the sample until a defined force is reached and the cantilever is retracted. The hysteresis between the approach and retraction curves indicates sample viscosity (FIG. 1A).

| Compound | storage modulus (stiffness, G') [1] | faster relaxation times (high viscoelasticity) of HiAD livers, stress relaxation test [1] | hysteresis area between approach and retraction force curves (sample viscosity) [2] |
| --- | --- | --- | --- |
| Cc1sc[n+](CC(=O)c2ccccc2)c1C.[Cl-] [alagebrium, 3-phenacyl-4,5-dimethylthiazolium chloride] | did not change | reversed |  |
| Cc1ncc(CO)c(CN)c1O [PM, pyridoxamine] | did not change | reversed | reduced |

Source: patent US20250025048A1, “Liver Viscoelastic Changes and Biomarkers for Cancer Invasion” (The Board of Trustees of the Leland Stanford Junior …, priority 2021, published 2025)
